Our source for the EC50 values is US11452717B2, “Small molecule activators of nicotinamide phosphoribosyltransferase (NAMPT) and uses thereof” (Sanford Burnham Prebys Medical Discovery Institute, priority 2017, dated 2022).

SMILES strings stand for the structures. pEC50: −log10 of the molar value.

Sequence of NAMPT enzyme (P43490 whole entry, species assumed): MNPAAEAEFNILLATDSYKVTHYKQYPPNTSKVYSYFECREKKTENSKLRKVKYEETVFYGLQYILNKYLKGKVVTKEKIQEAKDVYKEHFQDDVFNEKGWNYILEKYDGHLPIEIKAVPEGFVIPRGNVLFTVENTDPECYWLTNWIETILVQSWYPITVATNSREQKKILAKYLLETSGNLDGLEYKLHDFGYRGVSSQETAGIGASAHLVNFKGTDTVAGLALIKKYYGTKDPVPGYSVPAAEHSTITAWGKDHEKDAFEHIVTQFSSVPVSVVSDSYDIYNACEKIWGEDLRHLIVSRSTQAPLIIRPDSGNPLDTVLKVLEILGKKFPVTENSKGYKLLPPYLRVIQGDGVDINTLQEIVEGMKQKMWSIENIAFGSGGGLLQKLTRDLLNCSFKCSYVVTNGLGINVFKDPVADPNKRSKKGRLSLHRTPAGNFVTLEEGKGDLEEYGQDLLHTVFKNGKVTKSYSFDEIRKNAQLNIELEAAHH

One assay deals with NAMPT enzyme (Homo sapiens (Human), UniProt P43490). Description: Enzyme Assay and NMN Detection (NAMPT reaction, fluorescence detection of NMN). It is filed as biochemical. The settings on record: Table B-1; NAMPT activation, NMN formation. The method in brief:
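NMN formed was read at ex380/em460 after acetophenone/KOH derivatization and formic acid addition, using a same-day calibration curve. Final conditions: NAMPT 16 nM, nicotinamide 5 uM, PRPP 6.25 uM, ATP 120 uM, pyrophosphatase 0.04 U/ml, pH 7.5 HEPES buffer with MgCl2 and TCEP, 2 h at room temperature.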
The pEC50 is −log10 of the EC50, conventionally taken in molar units. A higher pEC50 goes with a low EC50. On to `O=C(NCc1cn[nH]c1)Nc1ccc(S(=O)(=O)NCC2CCC2)cc1` [N-Cyclobutylmethyl-4-[3-(1H-pyrazol-4-ylmethyl)-ureido]-benzenesulfonamide], for which the pEC50 was 5.70 to 7.00. Turning to `CN(C1CCCC1)S(=O)(=O)c1ccc(NC(=O)NCc2cn[nH]c2)cc1` [N-Cyclopentyl-N-methyl-4-[3-(1H-pyrazol-4-ylmethyl)-ureido]-benzenesulfonamide], the pEC50 is 5.70 to 7.00. `O=C(NCc1cn[nH]c1)Nc1ccc(S(=O)(=O)Nc2ccccc2)cc1` [N-Phenyl-4-[3-(1H-pyrazol-4-ylmethyl)-ureido]-benzenesulfonamide] had a negative-log EC50 (pEC50) of 5.70 to 7.00. Still for that read-out and setting: the same measure for `O=C(NCc1cnco1)Nc1ccc(NS(=O)(=O)c2ccccc2)cc1` [N-[4-(3-Oxazol-5-ylmethyl-ureido)-phenyl]-benzenesulfonamide]: 5.70 to 7.00.

Staying with this assay, now noted: Table B-2; NAMPT activation, NMN formation.
Compound `CN(CC1CCC1)S(=O)(=O)c1ccc(NC(=O)NCc2ccncc2)cc1` [N-Cyclobutylmethyl-N-methyl-4-(3-pyridin-4-ylmethyl-ureido)-benzenesulfonamide] showed a pEC50 of 5.70 to 7.00.

In turn, `O=C(NCc1ccncc1)Nc1ccc(S(=O)(=O)NC2CCCCC2)cc1` [N-Cyclohexyl-4-(3-pyridin-4-ylmethyl-ureido)-benzenesulfonamide] had a pEC50 of 5.70 to 7.00.

The compound `CN(C1CCCCC1)S(=O)(=O)c1ccc(NC(=O)NCc2ccncc2)cc1` [N-Cyclohexyl-N-methyl-4-(3-pyridin-4-ylmethyl-ureido)-benzenesulfonamide] showed a pEC50 of 5.70 to 7.00.

`CC(C)CN(C1CCCC1)S(=O)(=O)c1ccc(NC(=O)NCc2ccncc2)cc1` [N-Cyclopentyl-N-isobutyl-4-(3-pyridin-4-ylmethyl-ureido)-benzenesulfonamide] gave a pEC50 of over 7.00.

On to `CN(C1CCCC1)S(=O)(=O)c1ccc(NC(=O)NCc2ccncc2)cc1` [N-Cyclopentyl-N-methyl-4-(3-pyridin-4-ylmethyl-ureido)-benzenesulfonamide], for which the negative logarithm of the EC50 (pEC50) was 5.70 to 7.00.

In the case of `O=C(NCc1ccncc1)Nc1ccc(S(=O)(=O)NC2CC2)cc1` [N-Cyclopropyl-4-(3-pyridin-4-ylmethyl-ureido)-benzenesulfonamide], the pEC50 is 5.30 to 5.70. In the case of `O=C(NCc1ccncc1)Nc1ccc(S(=O)(=O)NCC2CC2)cc1` [N-Cyclopropylmethyl-4-(3-pyridin-4-ylmethyl-ureido)-benzenesulfonamide], the negative logarithm of the EC50 (pEC50) was 5.70 to 7.00. `CC(C)NC(=O)c1ccc(NC(=O)NCc2ccncc2)cc1` [N-Isopropyl-4-(3-(pyridin-4-ylmethyl)ureido)benzamide] showed a pEC50 of 5.70 to 7.00.

For `CC(C)NS(=O)(=O)c1ccc(NC(=O)NCc2ccncc2)cc1` [N-Isopropyl-4-(3-pyridin-4-ylmethyl-ureido)-benzenesulfonamide], the negative logarithm of the EC50 (pEC50) is 5.70 to 7.00. Turning to `CC(C)N(c1ccc(NC(=O)NCc2ccncc2)cc1)S(=O)(=O)Cc1ccccc1` [N-Isopropyl-C-phenyl-N-[4-(3-pyridin-4-ylmethyl-ureido)-phenyl]-methanesulfonamide], the pEC50 was 5.30 to 5.70. `CC(C)N(c1ccc(NC(=O)NCc2ccncc2)cc1)S(=O)(=O)c1ccccc1` [N-Isopropyl-N-[4-(3-pyridin-4-ylmethyl-ureido)-phenyl]-benzenesulfonamide] gave a negative logarithm of the EC50 (pEC50) of 5.30 to 5.70. Compound `CN(Cc1ccccc1OC(F)(F)F)S(=O)(=O)c1ccc(NC(=O)NCc2ccncc2)cc1` [N-Methyl-4-(3-pyridin-4-ylmethyl-ureido)-N-(2-trifluoromethoxy-benzyl)-benzenesulfonamide] gave a pEC50 of over 7.00. As for `CNS(=O)(=O)c1ccc(NC(=O)NCc2ccncc2)cc1` [N-Methyl-4-(3-pyridin-4-ylmethyl-ureido)-benzenesulfonamide], the pEC50 was 5.30 to 5.70.

For `Cc1ccccc1CN(C)S(=O)(=O)c1ccc(NC(=O)NCc2ccncc2)cc1` [N-Methyl-N-(2-methyl-benzyl)-4-(3-pyridin-4-ylmethyl-ureido)-benzenesulfonamide], the negative logarithm of the EC50 (pEC50) is over 7.00. The compound `CN(c1ccc(NC(=O)NCc2ccncc2)cc1)S(=O)(=O)c1ccccc1` [N-Methyl-N-[4-(3-pyridin-4-ylmethyl-ureido)-phenyl]-benzenesulfonamide] showed a pEC50 of 5.70 to 7.00. `CN(c1ccccc1)S(=O)(=O)Cc1ccc(NC(=O)NCc2ccncc2)cc1` [N-Methyl-N-phenyl-C-[4-(3-pyridin-4-ylmethyl-ureido)-phenyl]-methanesulfonamide]: the pEC50 is 5.70 to 7.00. As for `O=C(NCc1ccncc1)Nc1ccc(S(=O)(=O)Nc2ccccc2)cc1` [N-Phenyl-4-(3-pyridin-4-ylmethyl-ureido)-benzenesulfonamide], the pEC50 was 5.70 to 7.00. Consider `O=C(NCc1ccncc1)Nc1ccc(CS(=O)(=O)Nc2ccccc2)cc1` [N-Phenyl-C-[4-(3-pyridin-4-ylmethyl-ureido)-phenyl]-methanesulfonamide], for which the pEC50 is 5.70 to 7.00. In turn, `CCCNS(=O)(=O)c1ccc(NC(=O)NCc2ccncc2)cc1` [N-Propyl-4-(3-pyridin-4-ylmethyl-ureido)-benzenesulfonamide] had a pEC50 of 5.70 to 7.00.

The compound `O=C(NCc1ccncc1)Nc1ccc(S(=O)(=O)Nc2ccccn2)cc1` [N-Pyridin-2-yl-4-(3-pyridin-4-ylmethyl-ureido)-benzenesulfonamide] gave a pEC50 of under 4.70. For the compound `O=C(NCc1ccncc1)Nc1ccc(S(=O)(=O)NCc2ccncc2)cc1` [N-Pyridin-4-ylmethyl-4-(3-pyridin-4-ylmethyl-ureido)-benzenesulfonamide], the pEC50 was 5.70 to 7.00. `CN1CCN(CCNS(=O)(=O)c2ccc(NC(=O)NCc3ccncc3)cc2)CC1` [N-[2-(4-Methyl-piperazin-1-yl)-ethyl]-4-(3-pyridin-4-ylmethyl-ureido)-benzenesulfonamide]: the negative-log EC50 (pEC50) was 5.70 to 7.00. For `O=C(NCc1ccccc1)Nc1ccc(NS(=O)(=O)Cc2ccccc2)cc1` [N-[4-(3-Benzyl-ureido)-phenyl]-C-phenyl-methanesulfonamide], the pEC50 was over 7.00. As to `O=C(NCc1ccncc1)Nc1ccc(NS(=O)(=O)c2ccccc2)cc1` [N-[4-(3-Pyridin-4-ylmethyl-ureido)-phenyl]-benzenesulfonamide], the pEC50 was over 7.00. The same measure, in the same setting: the same measure for `O=C(NCc1ccncc1)Nc1cccc(S(=O)(=O)NCc2ccccc2)c1` [N-benzyl-3-(3-(pyridin-4-ylmethyl)ureido)benzenesulfonamide]: 4.70 to 5.30; for `CN(Cc1ccccc1)C(=O)c1ccc(NC(=O)NCc2ccncc2)cc1` [N-benzyl-N-methyl-4-(3-(pyridin-4-ylmethyl)ureido)benzamide]: 5.70 to 7.00. `CCCCNC(=O)c1ccc(NC(=O)NCc2ccncc2)cc1` [N-butyl-4-(3-(pyridin-4-ylmethyl)ureido)benzamide] showed a pEC50 of 5.70 to 7.00. Regarding `O=C(NCc1ccncc1)Nc1ccc(C(=O)NC2CCC2)cc1` [N-cyclobutyl-4-(3-(pyridin-4-ylmethyl)ureido)benzamide], the negative-log EC50 (pEC50) is 4.70 to 5.30.

For the compound `O=C(NCc1ccncc1)Nc1ccc(C(=O)NC2CCCCC2)cc1` [N-cyclohexyl-4-(3-(pyridin-4-ylmethyl)ureido)benzamide], the negative logarithm of the EC50 (pEC50) was 5.30 to 5.70. With `O=C(NCc1ccncc1)Nc1cccc(S(=O)(=O)NC2CCCC2)c1` [N-cyclopentyl-3-(3-(pyridin-4-ylmethyl)ureido)benzenesulfonamide], the negative-log EC50 (pEC50) was under 4.70. In the case of `O=C(NCc1ccncc1)Nc1ccc(C(=O)NC2CCCC2)cc1` [N-cyclopentyl-4-(3-(pyridin-4-ylmethyl)ureido)benzamide], the pEC50 was 4.70 to 5.30.

Compound `O=C(NCc1ccncc1)Nc1ccc(S(=O)(=O)NC2CCCC2)cc1` [N-cyclopentyl-4-(3-pyridin-4-ylmethyl-ureido)-benzenesulfonamide] showed a pEC50 of 5.70 to 7.00.

As for `CCN(C)C(=O)c1ccc(NC(=O)NCc2ccncc2)cc1` [N-ethyl-N-methyl-4-(3-(pyridin-4-ylmethyl)ureido)benzamide], the pEC50 was 4.70 to 5.30. Same read-out and setting: for `CC(C)CNC(=O)c1ccc(NC(=O)NCc2ccncc2)cc1` [N-isobutyl-4-(3-(pyridin-4-ylmethyl)ureido)benzamide] the value was 5.70 to 7.00.

As for `CN(Cc1ccccc1C(F)(F)F)S(=O)(=O)c1ccc(NC(=O)NCc2ccncc2)cc1` [N-methyl-4-(3-(pyridin-4-ylmethyl)ureido)-N-(2-(trifluoromethyl)benzyl)benzenesulfonamide], the negative-log EC50 (pEC50) is over 7.00. Compound `Cc1ccc(N(C)C(=O)c2ccc(NC(=O)NCc3ccncc3)cc2)cc1` [N-methyl-4-(3-(pyridin-4-ylmethyl)ureido)-N-(p-tolyl)benzamide] had a pEC50 of 4.70 to 5.30. As for `CN(c1ccc(NC(=O)NCc2ccncc2)cc1)S(=O)(=O)Cc1ccccc1` [N-methyl-C-phenyl-N-[4-(3-pyridin-4-ylmethyl-ureido)-phenyl]-methanesulfonamide], the negative-log EC50 (pEC50) was over 7.00. In turn, `CCCN(C)C(=O)c1ccc(NC(=O)NCc2ccncc2)cc1` [N-methyl-N-propyl-4-(3-(pyridin-4-ylmethyl)ureido)benzamide] showed a pEC50 of 4.70 to 5.30. `CC(C)(C)CNS(=O)(=O)c1ccc(NC(=O)NCc2ccncc2)cc1` [N-neopentyl-4-(3-pyridin-4-ylmethyl-ureido)-benzenesulfonamide]: the pEC50 was 5.70 to 7.00.

Regarding `O=C(NCc1ccncc1)Nc1cccc(S(=O)(=O)NCCc2ccccc2)c1` [N-phenethyl-3-(3-(pyridin-4-ylmethyl)ureido)benzenesulfonamide], the pEC50 was under 4.70. In turn, `O=C(NCc1ccncc1)Nc1ccc(C(=O)NCCc2ccccc2)cc1` [N-phenethyl-4-(3-(pyridin-4-ylmethyl)ureido)benzamide] gave a negative logarithm of the EC50 (pEC50) of 5.70 to 7.00.

The assay is the same for the next values; noted with them: Table B-6; NAMPT activation, NMN formation.
Take `Cc1cccc(CS(=O)(=O)Nc2ccc(NC(=O)NCc3ccncc3)cc2)c1` [N-[4-(3-Pyridin-4-ylmethyl-ureido)-phenyl]-C-m-tolyl-methanesulfonamide]: the negative-log EC50 (pEC50) is over 7.00. `Cc1ccc(CS(=O)(=O)Nc2ccc(NC(=O)NCc3ccncc3)cc2)cc1` [N-[4-(3-Pyridin-4-ylmethyl-ureido)-phenyl]-C-p-tolyl-methanesulfonamide] gave a pEC50 of over 7.00.
